Entries after “also recorded” stand apart in the source; their conditions may differ. Read-outs that look alike come from different tables or passages of the source.
Columns and labels:
NK3R [1] = target: T1, NK3R (Homo sapiens, UniProt P29371); settings: cited from earlier work; for safety and tolerability in clinical trials: human, Phase I
T1 construct: host or cells: human trial subjects
T1 sequence (P29371 1-465): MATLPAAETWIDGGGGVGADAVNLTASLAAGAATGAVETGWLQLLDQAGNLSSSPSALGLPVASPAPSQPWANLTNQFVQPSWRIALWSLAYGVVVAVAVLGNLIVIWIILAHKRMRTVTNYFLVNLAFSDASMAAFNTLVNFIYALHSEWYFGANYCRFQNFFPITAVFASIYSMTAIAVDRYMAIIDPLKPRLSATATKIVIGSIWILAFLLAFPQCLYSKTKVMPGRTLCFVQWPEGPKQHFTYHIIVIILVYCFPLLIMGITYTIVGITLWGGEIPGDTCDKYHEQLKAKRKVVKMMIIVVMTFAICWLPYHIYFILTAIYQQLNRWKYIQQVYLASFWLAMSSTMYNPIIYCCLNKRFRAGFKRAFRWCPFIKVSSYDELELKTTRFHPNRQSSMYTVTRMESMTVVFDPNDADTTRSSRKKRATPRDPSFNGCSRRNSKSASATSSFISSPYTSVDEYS

[2] = Spooren et al., 2005; cited from earlier work
Nk3R [3] = target: T2, Nk3R (Mus musculus, UniProt P47937); assay: Looming disk assay (freezing, tail rattles, latency to orient), osanetant; type: in vivo; parameters: from tissue; host or cells: Living mice (wild-type C57Bl6/N males, Charles River); settings: for SIS-induced increased tail rattling (looming disk assay) / SIS-induced persistent (post) freezing to looming disk: SIS mice; for SIS-induced increased tail rattling (looming disk assay): acute systemic osanetant; for acute (and thereby persistent) freezing to innate threatening stimulus (looming disk): osanetant injection into CeA
T2 sequence (P47937 1-452): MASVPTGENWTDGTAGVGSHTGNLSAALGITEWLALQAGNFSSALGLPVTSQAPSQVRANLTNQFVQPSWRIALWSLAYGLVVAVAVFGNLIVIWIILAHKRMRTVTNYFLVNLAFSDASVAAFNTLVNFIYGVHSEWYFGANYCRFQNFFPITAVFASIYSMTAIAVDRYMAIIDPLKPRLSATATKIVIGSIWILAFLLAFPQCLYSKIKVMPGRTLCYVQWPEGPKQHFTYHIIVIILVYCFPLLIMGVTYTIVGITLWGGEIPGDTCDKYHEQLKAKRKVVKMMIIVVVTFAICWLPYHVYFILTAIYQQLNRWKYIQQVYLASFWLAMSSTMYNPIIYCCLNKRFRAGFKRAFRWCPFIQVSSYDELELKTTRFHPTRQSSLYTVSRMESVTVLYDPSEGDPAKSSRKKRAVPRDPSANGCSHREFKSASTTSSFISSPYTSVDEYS
Procedure: Freezing behavior to presentation of an overhead looming disk proceeded as previously described (Kunwar et al., 2015; Yilmaz and Meister, 2013; incorporated by reference in their entirety). Briefly, mice were transported to a novel behavioral testing room. After 5 minutes of acclimation, mice were placed inside a novel, custom-built open top Plexiglas arena (48×48×30 cm) covered with a flat screen monitor placed directly above and with illumination provided by infrared LEDs (Marubeni). Mice were given a 5 minute baseline period in the arena, after which entry into the center of the arena triggered presentation of a single, 10 second overhead looming disk stimulus (comprised of a single looming disk presentation 0.5 seconds in duration, which was repeated 10 times with an inter-stimulus interval of 0.5 seconds). The stimulus was controlled by custom MATLAB code (M. Meister, Caltech) run on a dedicated computer in an adjacent room. Mice remained in the area for an additional 2 minutes before being transported back. Behavior was recorded using a video recorder attached to a laptop equipped with video capture software (Corel VideoStudio Pro). Acute freezing behavior to the looming disk (“during”) as well as in the 30 seconds following the last disk (“post”) were scored manually (Behavior Annotator, MATLAB) by an observer blind to environmental conditions.
(§1) Mice were administered the Nk3R antagonist osanetant (Axon Medchem, Axon 1533) either systemically or intra-brain region. Osanctant was dissolved in saline with 0.1% Tween 20 (vehicle). For systemic administration mice received an intraperitoneal (i.p.) injection (5 mg/kg) 20 minutes prior to behavioral testing. For microinfusions, guide cannulas were removed from mice and replaced with injector cannulas (Plastics One), which protruded 0.5 mm from the tip of the guide cannula. Injectors were attached to 5 μl Hamilton syringes with PE tubing (Plastics One) and mounted on a microinfusion pump (Harvard Apparatus) for controlled infusion of osanetant (0.3 μl vehicle with 375 ng dose per site injected over 6 minutes). For experiments using systemic administration of clozapine-N-oxide (CNO), CNO (Enzo Life Sciences-Biomol, BML-NS105-0005) was dissolved in saline (9 g/L NaCl) and injected (i.p.) at 5 mg/kg for hM4DREADD silencing or 2 mg/kg for hM3DREADD activation 20 minutes prior to behavioral testing. CNO was also administered chronically in drinking water (0.5 mg CNO/100 ml water).

Nk3R [4] = target: T2, Nk3R; assay: Acoustic startle response, osanetant; type: in vivo; parameters: from tissue; host or cells: Living mice (wild-type C57Bl6/N males, Charles River); settings: SIS mice; acute systemic osanetant; listed as Osanetant
Procedure: as §1

Nk3R [5] = target: T2, Nk3R; assay: SIS mice: overall behavioral effects and return to group housing, osanetant; type: in vivo; parameters: from tissue; host or cells: Living mice (wild-type C57Bl6/N males, Charles River); settings: for fighting/aggression on return of SIS mice to housing with cagemates: osanetant during or during or following SIS
Excerpt: WT males (Charles River) were housed in isolation (1 animal per cage), or in groups of 3. Tac2-Cre males (bred in-house) were housed in isolation, or in groups of 2-5. Animals were isolated post-weaning, at 8-16 weeks of age. All cage conditions remained otherwise identical for group-housed mice compared to isolated animals, and mice were housed on the same rack in the same vivarium. Except as otherwise indicated, social isolation was maintained for at least 2 weeks (this period was extended in the case of surgical experiments, i.e. when adequate time for recovery and viral expression levels were required). All mice were between 12-20 weeks of age at the time of behavioral testing. We asked whether Tac2 signaling is required during the period of social isolation to observe the changes in behavior. Mice were administered osanetant daily in their home cage during the two-week social isolation period, but were then tested off-drug. To control for carry-over of the drug from the final homecage administration into the testing period (24 hrs later), an additional group of mice was subjected to two weeks of SIS without drug, and given a single home-cage administration of osanetant 24 hours prior to testing (FIG. 3G).

CC(=O)N(C)C1(c2ccccc2)CCN(CCC[C@]2(c3ccc(Cl)c(Cl)c3)CCCN(C(=O)c3ccccc3)C2)CC1 [osanetant, N-(1-{3-[(3R)-1-benzoyl-3-(3,4-dichlorophenyl)piperidin-3-yl]propyl}-4-phenylpiperidin-4-yl)-N-methylacetamide]
efficacy in schizophrenia, bipolar and panic disorder (NK3R [1]; human clinical trials): lack of efficacy | efficacy in schizophrenia and major depressive disorder (NK3R [1]; human trials, Phase II/III): lack of efficacy | safety and tolerability in clinical trials (NK3R [1]): safe and well-tolerated | safety and tolerability in clinical trials (NK3R [1]; listed as Osanetant): well tolerated; also recorded: exhibited safety | blood-brain barrier passage [2]: crosses the blood-brain barrier | SIS-induced increased tail rattling (looming disk assay) (Nk3R [3]): attenuated | SIS-induced increased tail rattling (looming disk assay) (Nk3R [3]; listed as Osanetant): blocked | SIS-induced persistent (post) freezing to looming disk (Nk3R [3]; osanetant 5 mg/kg i.p. 20 min before test): blocked | SIS-induced persistent (post) freezing to looming disk (Nk3R [3]; osanetant 5 mg/kg i.p. 20 min before test, listed as Osanetant): attenuated | freezing during presentation of looming disk (acute) (Nk3R [3]; osanetant 5 mg/kg i.p. 20 min before test, between groups): no significant differences | persistent freezing to looming disk (Nk3R [3]; osanetant daily during two-week isolation, tested off-drug): prevented | acute (and thereby persistent) freezing to innate threatening stimulus (looming disk) (Nk3R [3]): reduced | acute (and thereby persistent) freezing to innate threatening stimulus (looming disk) (Nk3R [3]; listed as Osanetant): selectively blocked | SIS-induced persistent freezing to looming disk (Nk3R [3]; osanetant microinfusion into ACC or striatum): failed to yield significant effects; also recorded: No significant effects | persistent responses to looming stimulus (Nk3R [3]; osanetant microinfusion into DMH): had no effect | SIS-induced persistent freezing to looming disk (Nk3R [3]; osanetant microinfusion into dBNSTa, 375 ng per site, 20 min before test): selectively inhibited | SIS-induced persistent freezing to looming disk (Nk3R [3]; osanetant microinfusion into dBNSTa, 375 ng per site, 20 min before test, listed as Osanetant): selectively blocked | SIS-induced enhanced acoustic startle responding (Nk3R [4]): blocked; also recorded: attenuated | behavioral effects of 2 weeks of social isolation stress (overall) (Nk3R [5]; mice): protects and prevents | fighting/aggression on return of SIS mice to housing with cagemates (Nk3R [5]): without any subsequent fighting observed | fighting/aggression on return of SIS mice to housing with cagemates (Nk3R [5]; listed as Osanetant): prevents aggression
